Laboratory results from patent US20130012432A1, “Peptides for Treatment of Obesity” (Novo Nordisk A/S, priority 2010, published 2013).
≈ marks a conversion by molar mass, not a printed value. Positions of bridges follow the written chain, without caps; N, C: chain ends. Non-standard residues stand in square brackets, D forms with d. Residues, ends and D or L forms follow the SMILES beside them. Groups on a side chain read outwards from the residue. *: point of attachment. Palmitoyl(16-(5-tetrazolyl)) = O=C(CCCCCCCCCCCCCCCc1nnn[nH]1)*; Lys(CH2CO2H)2 = N[C@@H](CCCCN(CC(=O)O)CC(=O)O)C(=O)O; X1 = O=C(O)CCCCCCCCCCCCCCCCC(=O)NCCOCCOCCN*; C17 diacid = O=C(O)CCCCCCCCCCCCCCCC(=O)*; Hyp = O=C(O)[C@@H]1C[C@@H](O)CN1; hCys = N[C@@H](CCS)C(=O)O; Orn = NCCC[C@H](N)C(=O)O; Dab = NCC[C@H](N)C(=O)O; AEEA = NCCOCCOCC(=O)O

Assay: physchem
Protocol: From a stock solution in vehicle, either H2O or 10 mM phosphate, containing 1 mg (as weighed) compound per ml, 8-11 aliquots are withdrawn and pH-adjusted individually with HCl/NaOH, to cover the whole pH range.

Row | Compound | solubility (pH 5.9, Solubility Conc.) | solubility (pH 6.5, Solubility Conc.) | solubility (pH 7.5, Solubility Conc.) | solubility (pH 7.6, Solubility Conc.) | solubility (pH 6.7, Solubility Conc.) | solubility (pH 7.2, Solubility Conc.) | solubility (pH 7.4, Solubility Conc.) | solubility (pH 7.7, Solubility Conc.) | solubility (pH 7.9, Solubility Conc.) | solubility (pH 6.3, Solubility Conc.) | solubility (pH 7.3, Solubility Conc.) | solubility (pH 8, Solubility Conc.) | other results
1 | CC(=O)N[C@H]1CCSSC[C@@H](C(=O)N2CCC[C@H]2C(=O)N2CCC[C@H]2C(=O)N[C@@H](CCCCN)C(=O)N[C@@H](CCC(=O)O)C(=O)N[C@@H](CCCCN(CC(=O)O)CC(=O)O)C(=O)N[C@@H](CCCCNC(=O)COCCOCCNC(=O)CCCCCCCCCCCCCCCc2nnn[nH]2)C(N)=O)NC(=O)[C@H](Cc2c[nH]c3ccccc23)NC(=O)[C@H](CCCNC(=N)N)NC(=O)[C@@H](Cc2ccccc2)NC(=O)[C@H](CO)NC1=O [Example 58, Ac-c[homoCys-Ser-D-Phe-Arg-Trp-Cys]-Pro-Pro-Lys-Glu-Lys(biscarboxymethyl)-Lys[(2-{2-[16-(tetrazol-5-yl)hexadecanoylamino]ethoxy}ethoxy)acetyl]-NH2] (Ac-[hCys]S[dF]RWCPPKE[Lys(CH2CO2H)2]K([AEEA-Palmitoyl(16-(5-tetrazolyl))])-NH2; disulfide 1-6) | 8 µM (≈ 17 µg/mL) | 37 µM (≈ 78.8 µg/mL) | 80 µM (≈ 170 µg/mL) | 385 µM (≈ 820 µg/mL) |  |  |  |  |  |  |  |  | solubility (pH 3, Solubility Conc.): 539 µM (≈ 1150 µg/mL); solubility (pH 3.9, Solubility Conc.): 56 µM (≈ 119 µg/mL); solubility (pH 6.2, Solubility Conc.): 21 µM (≈ 44.7 µg/mL); solubility (pH 6.6, Solubility Conc.): 30 µM (≈ 63.9 µg/mL); solubility (pH 8.6, Solubility Conc.): 250 µM (≈ 532 µg/mL); solubility (pH 9, Solubility Conc.): 365 µM (≈ 777 µg/mL)
2 | CC(=O)N[C@H]1CCC(=O)NCCC[C@@H](C(=O)N2CCC[C@H]2C(=O)N2CCC[C@H]2C(=O)N[C@@H](Cc2c[nH]cn2)C(=O)N[C@@H](CC(=O)O)C(=O)N[C@@H](CCCCN(CC(=O)O)CC(=O)O)C(=O)N[C@@H](CCCCNC(=O)COCCOCCNC(=O)CCCCCCCCCCCCCCCc2nnn[nH]2)C(N)=O)NC(=O)[C@H](Cc2c[nH]c3ccccc23)NC(=O)[C@H](CCCNC(=N)N)NC(=O)[C@@H](Cc2ccccc2)NC(=O)[C@H](Cc2c[nH]cn2)NC1=O [Example 43, Ac-c[Glu-His-D-Phe-Arg-Trp-Orn]-Pro-Pro-His-Asp-Lys(biscarboxymethyl)-Lys[(2-{2-[16-(tetrazol-5-yl)hexadecanoylamino]ethoxy}ethoxy)acetyl]-NH2] (Ac-EH[dF]RW[Orn]PPHD[Lys(CH2CO2H)2]K([AEEA-Palmitoyl(16-(5-tetrazolyl))])-NH2; lactam 1-6) | 27 µM (≈ 58.9 µg/mL) | 75 µM (≈ 164 µg/mL) |  |  | 315 µM (≈ 687 µg/mL) | 478 µM (≈ 1040 µg/mL) | 506 µM (≈ 1100 µg/mL) | 487 µM (≈ 1060 µg/mL) | 490 µM (≈ 1070 µg/mL) |  |  |  | solubility (pH 6.8, Solubility Conc.): 478 µM (≈ 1040 µg/mL); solubility (pH 8.1, Solubility Conc.): 493 µM (≈ 1080 µg/mL)
3 | CC(=O)N[C@H]1CCNC(=O)C[C@@H](C(=O)N2CCC[C@H]2C(=O)N2CCC[C@H]2C(=O)N[C@@H](CCCNC(=N)N)C(=O)N[C@@H](CC(=O)O)C(=O)N[C@@H](CCCCN(CC(=O)O)CC(=O)O)C(=O)N[C@@H](CCCCNC(=O)COCCOCCNC(=O)CCCCCCCCCCCCCCCc2nnn[nH]2)C(N)=O)NC(=O)[C@H](Cc2c[nH]c3ccccc23)NC(=O)[C@H](CCCNC(=N)N)NC(=O)[C@@H](Cc2ccccc2)NC(=O)[C@H](Cc2c[nH]cn2)NC1=O [Example 25, Ac-c[Dab-His-D-Phe-Arg-Trp-Asp]-Pro-Pro-Arg-Asp-Lys(biscarboxymethyl)-Lys[(2-{2-[16-(tetrazol-5-yl)hexadecanoylamino]ethoxy}ethoxy)acetyl]-NH2] (Ac-[Dab]H[dF]RWDPPRD[Lys(CH2CO2H)2]K([AEEA-Palmitoyl(16-(5-tetrazolyl))])-NH2; lactam 1-6) |  |  | 479 µM (≈ 1040 µg/mL) |  |  |  | 472 µM (≈ 1030 µg/mL) | 471 µM (≈ 1020 µg/mL) |  | 34 µM (≈ 73.9 µg/mL) | 439 µM (≈ 954 µg/mL) | 498 µM (≈ 1080 µg/mL) | solubility (pH 6, Solubility Conc.): 24 µM (≈ 52.1 µg/mL); solubility (pH 7, Solubility Conc.): 133 µM (≈ 289 µg/mL)
4 | CC(=O)N[C@H]1CCCNC(=O)C[C@@H](C(=O)N2CCC[C@H]2C(=O)N2CCC[C@H]2C(=O)N[C@@H](CCCNC(=N)N)C(=O)N[C@@H](CCC(=O)O)C(=O)N[C@@H](CCCCN(CC(=O)O)CC(=O)O)C(=O)N[C@@H](CCCCNC(=O)COCCOCCNC(=O)CCCCCCCCCCCCCCCc2nnn[nH]2)C(N)=O)NC(=O)[C@H](Cc2c[nH]c3ccccc23)NC(=O)[C@H](CCCNC(=N)N)NC(=O)[C@@H](Cc2ccccc2)NC(=O)[C@H](Cc2c[nH]cn2)NC1=O [Example 19, Ac-c[Orn-His-D-Phe-Arg-Trp-Asp]-Pro-Pro-Arg-Glu-Lys(biscarboxymethyl)-Lys[(2-{2-[16-(tetrazol-5-yl)hexadecanoylamino]ethoxy}ethoxy)acetyl]-NH2] (Ac-[Orn]H[dF]RWDPPRE[Lys(CH2CO2H)2]K([AEEA-Palmitoyl(16-(5-tetrazolyl))])-NH2; lactam 1-6) |  |  | 474 µM (≈ 1040 µg/mL) |  | 38 µM (≈ 83.6 µg/mL) | 433 µM (≈ 953 µg/mL) |  | 517 µM (≈ 1140 µg/mL) | 441 µM (≈ 970 µg/mL) | 26 µM (≈ 57.2 µg/mL) | 447 µM (≈ 984 µg/mL) |  | solubility (pH 6.9, Solubility Conc.): 70 µM (≈ 154 µg/mL)
5 | CC(=O)N[C@H]1CC(=O)NCC[C@@H](C(=O)N2CCC[C@H]2C(=O)N2CCC[C@H]2C(=O)N[C@@H](CCCNC(=N)N)C(=O)N[C@@H](CC(=O)O)C(=O)N[C@@H](CCCCN(CC(=O)O)CC(=O)O)C(=O)N[C@@H](CCCCNC(=O)COCCOCCNC(=O)CCCCCCCCCCCCCCCc2nnn[nH]2)C(N)=O)NC(=O)[C@H](Cc2c[nH]c3ccccc23)NC(=O)[C@H](CCCNC(=N)N)NC(=O)[C@@H](Cc2ccccc2)NC(=O)[C@H](Cc2c[nH]cn2)NC1=O [Example 30, Ac-c[Asp-His-D-Phe-Arg-Trp-Dab]-Pro-Pro-Arg-Asp-Lys(biscarboxymethyl)-Lys[(2-{2-[16-(tetrazol-5-yl)hexadecanoylamino]ethoxy}ethoxy)acetyl]-NH2] (Ac-DH[dF]RW[Dab]PPRD[Lys(CH2CO2H)2]K([AEEA-Palmitoyl(16-(5-tetrazolyl))])-NH2; lactam 1-6) | 24 µM (≈ 52.1 µg/mL) |  | 478 µM (≈ 1040 µg/mL) | 493 µM (≈ 1070 µg/mL) |  |  |  |  | 497 µM (≈ 1080 µg/mL) |  | 377 µM (≈ 819 µg/mL) |  | solubility (pH 6.4, Solubility Conc.): 37 µM (≈ 80.4 µg/mL); solubility (pH 7, Solubility Conc.): 144 µM (≈ 313 µg/mL)
6 | CC(=O)N[C@H]1CCCNC(=O)C[C@@H](C(=O)N2CCC[C@H]2C(=O)N2CCC[C@H]2C(=O)N[C@@H](Cc2c[nH]cn2)C(=O)N[C@@H](CCC(=O)O)C(=O)N[C@@H](CCCCN(CC(=O)O)CC(=O)O)C(=O)N[C@@H](CCCCNC(=O)COCCOCCNC(=O)CCCCCCCCCCCCCCCC(=O)O)C(N)=O)NC(=O)[C@H](Cc2c[nH]c3ccccc23)NC(=O)[C@H](CCCNC(=N)N)NC(=O)[C@@H](Cc2ccccc2)NC(=O)[C@H](Cc2c[nH]cn2)NC1=O [Example 55, Ac-c[Orn-His-D-Phe-Arg-Trp-Asp]-Pro-Pro-His-Glu-Lys(biscarboxymethyl)-Lys({2-[2-(16-carboxyhexadecanoylamino)ethoxy]ethoxy}acetyl)-NH2] (Ac-[Orn]H[dF]RWDPPHE[Lys(CH2CO2H)2]K([AEEA-C17 diacid])-NH2; lactam 1-6) |  | 236 µM (≈ 509 µg/mL) |  | 422 µM (≈ 910 µg/mL) | 436 µM (≈ 941 µg/mL) | 414 µM (≈ 893 µg/mL) |  | 435 µM (≈ 939 µg/mL) |  | 152 µM (≈ 328 µg/mL) |  | 426 µM (≈ 919 µg/mL) | solubility (pH 6.6, Solubility Conc.): 337 µM (≈ 727 µg/mL); solubility (pH 6.9, Solubility Conc.): 426 µM (≈ 919 µg/mL)
7 | CC(=O)N[C@H]1CCC(=O)NCCC[C@@H](C(=O)N2C[C@H](O)C[C@H]2C(=O)N2C[C@H](O)C[C@H]2C(=O)N[C@@H](CCCNC(=N)N)C(=O)N[C@@H](CC(=O)O)C(=O)N[C@@H](CCCCN(CC(=O)O)CC(=O)O)C(=O)N[C@@H](CCCCNC(=O)COCCOCCNC(=O)CCCCCCCCCCCCCCCc2nnn[nH]2)C(N)=O)NC(=O)[C@H](Cc2c[nH]c3ccccc23)NC(=O)[C@H](CCCNC(=N)N)NC(=O)[C@@H](Cc2ccccc2)NC(=O)[C@H](Cc2c[nH]cn2)NC1=O [Example 56, Ac-c[Glu-His-D-Phe-Arg-Trp-Orn]-Hyp-Hyp-Arg-Asp-Lys(biscarboxymethyl)-Lys[(2-{2-[16-(tetrazol-5-yl)hexadecanoylamino]ethoxy}ethoxy)acetyl]-NH2] (Ac-EH[dF]RW[Orn][Hyp][Hyp]RD[Lys(CH2CO2H)2]K([AEEA-Palmitoyl(16-(5-tetrazolyl))])-NH2; lactam 1-6) |  |  | 395 µM (≈ 882 µg/mL) | 521 µM (≈ 1160 µg/mL) |  |  | 169 µM (≈ 377 µg/mL) | 408 µM (≈ 911 µg/mL) |  |  |  | 392 µM (≈ 875 µg/mL) | solubility (pH 6.8, Solubility Conc.): 47 µM (≈ 105 µg/mL); solubility (pH 7.1, Solubility Conc.): 79 µM (≈ 176 µg/mL); solubility (pH 7.8, Solubility Conc.): 524 µM (≈ 1170 µg/mL)
8 | CC(=O)N[C@H]1CCNC(=O)C[C@@H](C(=O)N2CCC[C@H]2C(=O)N[C@@H](CO)C(=O)N[C@@H](CO)C(=O)N[C@@H](CO)C(=O)N[C@@H](CCCCN(CC(=O)O)CC(=O)O)C(=O)N[C@@H](CO)C(=O)N[C@@H](CO)C(=O)NCCOCCOCCNC(=O)CCCCCCCCCCCCCCCCC(=O)O)NC(=O)[C@H](Cc2c[nH]c3ccccc23)NC(=O)[C@H](CCCNC(=N)N)NC(=O)[C@@H](Cc2ccccc2)NC(=O)[C@H](Cc2c[nH]cn2)NC1=O [Example 3, Ac-c[Dab-His-D-Phe-Arg-Trp-Asp]-Pro-Ser-Ser-Ser-Lys(biscarboxymethyl)-Ser-Ser-NH(2-{2-[2-(17-carboxyheptadecanoylamino)ethoxy]ethoxy}ethyl)] (Ac-[Dab]H[dF]RWDPSSS[Lys(CH2CO2H)2]SS-X1; lactam 1-6) |  |  |  |  |  |  |  |  |  |  |  |  | solubility (pH 4.9, Solubility Conc., pH 4.9, vehicle 10 mM phosphate): 24 µM (≈ 50.1 µg/mL); solubility (pH 5.6, Solubility Conc., pH 5.6, vehicle 10 mM phosphate): 32 µM (≈ 66.8 µg/mL); solubility (pH 6.1, Solubility Conc., pH 6.1, vehicle 10 mM phosphate): 54 µM (≈ 113 µg/mL); solubility (pH 6.7, Solubility Conc., pH 6.7, vehicle 10 mM phosphate): 154 µM (≈ 321 µg/mL); solubility (pH 6.9, Solubility Conc., pH 6.9, vehicle 10 mM phosphate): 295 µM (≈ 616 µg/mL); solubility (pH 7.1, Solubility Conc., pH 7.1, vehicle 10 mM phosphate): 396 µM (≈ 827 µg/mL); solubility (pH 7.2, Solubility Conc., pH 7.2, vehicle 10 mM phosphate): 401 µM (≈ 837 µg/mL); solubility (pH 7.4, Solubility Conc., pH 7.4, vehicle 10 mM phosphate): 396 µM (≈ 827 µg/mL); solubility (pH 7.7, Solubility Conc., pH 7.7, vehicle 10 mM phosphate): 345 µM (≈ 720 µg/mL); solubility (pH 8.1, Solubility Conc., pH 8.1, vehicle 10 mM phosphate): 360 µM (≈ 751 µg/mL)
